Values of other authors as cited in patent US9192588B2, “Method for producing a zeaxanthin-enriched chicken egg” (JX NIPPON OIL & ENERGY CORPORATION, priority 2011, dated 2015).
Where two headings read alike, the source gives them in different places.

Settings: human
[1] = twice the initial dose for further 6 months

CC1=C(/C=C/C(C)=C/C=C/C(C)=C/C=C/C=C(C)/C=C/C=C(C)/C=C/C2=C(C)C[C@@H](O)CC2(C)C)C(C)(C)C[C@H](O)C1 [chemically synthesized zeaxanthin, zeaxanthin]
blood zeaxanthin concentration after intake (12.6 mg every day for 6 months): 0.85 µM | proportion of the increase to the intake (12.6 mg every day for 6 months): 0.06 μM/(mg/Day) | initial blood zeaxanthin concentration (before intake): 0.04 µM | blood zeaxanthin concentration after intake [1]: 1.09 µM | proportion of the increase to the intake [1]: 0.01 μM/(mg/Day)
